Laboratory results as given in patent EP0519427A2, “N-substituted-3-iodopropiolamide, production and use thereof” (priority 1991, dated 1992).

Columns and labels:
Assay type in all cases: cell-based
[1] = system: Candida albicans IFO-0583; experiment: Antibacterial and antifungal activity, paper disc method; details: IFO0583, paper disc d=8 mm dipped in 1,000 µg/ml solution, YNB agar medium, read-out: diameter of the growth inhibition circle, Can.(IFO-0583)
Procedure: (§1) Antibacterial and antifungal activity tests for various bacteria and fungi were conducted. The tests were carried out by the conventional paper disc method. That is, a paper disc (d=8 mm) was dipped in aqueous or methanol solution of the compound of the present invention (concentration : 1,000 µg/ml), then dried and used.
(§2) As bacteria to be tested, • ① Staphylococcus aureus IFO-12732 [hereinafter abbreviated to Sta.] • ② Bacillus subtilis IFO-13719 [Bac.] • ③ Escherichia coli IFO-3301 [Esc.] were used. As yeast to be tested, • ④ Saccharomyces cerevisiae IFO-0210 [Sac.] • ⑤ Candida albicans IFO-0583 [Can.] were used. As fungi to be tested, • ⑥ Aspergillus niger IFO-4407 [Asp.] • ⑦ Penicillium citrinum IFO-7784 [Pen.] • ⑧ Tyromyces palustris IFO-30339 [Tyr.] • ⑨ Coriolus versicolor IFO-30340 [Cor.] were used. Among the above fungi, Tyr. and Cor. are wood rot fungi.
(§3) As the test media, agar media shown below were used. That is, TSA (Trypticase Soy Agar) medium was used for Sta., Bac. and Esc.; YNB (Yeast Nitrogen Base) agar medium was used for Sac. and Can.; SDA (Sabouraud Dextrose Agar) medium was used for Asp. and Pen.; and PDA (Potato Dextrose Agar) medium was used for Try. and Cor.
(§4) The determination of antibacterial and antifungal effectiveness was carried out by measuring the diameter of the growth inhibition circle generated on the circumference of the paper disc. The indication of effectiveness is given as follows: -: no growth inhibition circle was observed. +: diameter of the growth inhibition circle was 9 - 20 mm ++: diameter of the growth inhibition circle was 21 - 40 mm +++: diameter of the growth inhibition circle was 41 mm or more

[2] = system: Saccharomyces cerevisiae IFO-0210; experiment: as above; details: IFO0210, paper disc d=8 mm dipped in 1,000 µg/ml solution, YNB agar medium, read-out: diameter of the growth inhibition circle, Sac.(IFO-0210)
Procedure: as §1, §2, §3, §4

[3] = system: Aspergillus niger IFO-4407; experiment: as above; details: IFO4407, paper disc d=8 mm dipped in 1,000 µg/ml solution, SDA medium, read-out: diameter of the growth inhibition circle, Asp.(IFO-4407)
Procedure: as §1, §2, §3, §4

[4] = system: Escherichia coli IFO-3301; experiment: as above; details: paper disc d=8 mm dipped in 1,000 µg/ml solution, TSA medium; for zone of inhibition at 1000 µg/mL: Escherichia coli, IFO3301, read-out: diameter of the growth inhibition circle, Esc.(IFO-3301)
Procedure: as §1, §2, §3, §4

[5] = system: Aspergillus Niger (IFO 6341), Penicillium funiculosum (IFO 6345), Rhizopus javanicus (IFO 6354), Aureobasidium pullulans (IFO 6353), Gliocladium virens (IFO …); experiment: Fungicide activity for wood fungicide, sum of average ratings and damage value over the five fungi; details: for damage value: D = S₁ / S₀ × 100, untreated 100.0, lower = higher fungicide activity; for Sum (of average rating values A₁ to A₅): S = A₁ + A₂ + A₃ + A₄ + A₅, untreated 15.0; for wood fungicide activity (statement in words): summary of Table 3
Procedure: This test was conducted according to Specification No.2 of Japan Wood Preserving Association, enacted in 1979 and titled "Test methods of fungicide activity for wood fungicide".
• ① Aspergillus niger van Tieghem IFO 6341 = ATCC 6275 • ② Penicillium funiculosum Thom (formerly : Penicillium luteum Zukal) IFO 6345 = ATCC 9644 • ③ Rhizopus javanicus Takeda (formerly : Rhizopus nigricans Ehrenberg S.N. 32) IFO 6354 • ④ Aureobasidium pullulans (de Bary) Arnaud IFO 6353 = IAM (H. Iizuka, F-24) • ⑤ Gliocladium virens Miller, Gidden & Fosteb IFO 6355 = ATCC 9645 (formerly : Trichoderma viride, T.I.)
The fungi ① , ② , ③ and ⑤ are classified as fungi imperfecti, and the fungus ④ as blue stain fungus.
The Culture medium comprised the potato-sap agar culture medium (specified in the Japan Industrial Standard (JIS) Z 2911- 1960) of 50 ml, put in the conical flask of 100 ml, sterilized by steam at 1.4-1.6 kgf/cm² .G (137.2-156.8 KPa) for 30 minutes.
The fungi to be used were inoculated into the culture medium specified in the previous section and were cultured at 26 ± 2 °C under the relative humidity of 70-80 % for two weeks.
The potato sap of 50 ml, sterilized, cooled to room temperature and to which dioctyl sodium sulfosuccinate, a wetting agent, was added so as to become 0.005 %, was dropped to the fully breeding fungi layer, and was agitated with a platinum spatula in such a way that the spore was torn off. The resulting liquid filtered by sterilized gauze was the spore suspension.
3-5-1 A Petri dish measured 90-100 mm in diameter and 20 mm in height.
3-5-2 Agar liquid (which has no nutrients) of 2 % sterilized by steam was dropped onto the Petri dish sterilized by dry heat, and then was solidified.
3-5-3 Three mm diameter sterilized glass bars or plastic nets made of polypropylene, etc. were placed to prevent the test specimens from touching with agar directly.
3-6-1 The type of trees for wood specimens was beech. The cross section was of grain face, and the dimension was 20 mm wide 3 mm thick and 50 mm long.
3-6-2 Wood specimens were supplied with nutrients in such a way that they were dipped into the potato-sap (the one in the section 3-2, but agar was not added) for 3 minutes.
3-6-3 Nutrient-supplied wood specimens, after drying at 60 °C, were used for testing immediately. They were temporarily stored at 0 °C, but they were served to tests as soon as possible.
The test specimens were of two types, treated and untreated speciments. The treated specimens referred to the one treated with fungicide. The untreated specimens were of two types, the one really untreated and the other treated with solvent only.
3-7-2-1 Nutrients-supplied wood specimens were dried at 60 ± 2 °C, and then their weights (W₀) were measured. Test specimens of 10-20 pieces were piled up in a one liter beaker in such a way that two specimens constant space apart from each other were alternately put on the other two specimens also constant space apart from each other. On the top of the two specimens, a weight was placed. Through the test specimens thus arranged, the fungicide solution was introduced. The level of the fungicide solution was one centimeter above the top specimens. The test specimens were dipped for three minutes after the fungicide solution introduction.
After finishing dipping, the test specimens were wiped softly, and then the weights (W₁) were measured immediately. As control experiment, the same procedure as the above was done using solvent without fungicide.
3-7-2-2 The amounts of solution pick-up and fungicide pick-up were calculated with the following equations: The amount of solution absorption: RL = W₁ - W₀ [formula] The amount of fungicide absorption: Rc = RL × fungicide concentration [formula] 3-7-2-3 Wood specimens treated were placed without contacting each other, then were air-dried for two days, and then served as the treated test specimens. […]

SMILES: CCCCCCCNC(=O)C#CI [Example 9, N-(n-Heptyl)-3-iodopropiolamide]
- zone of inhibition at 1000 µg/mL [1]: 21 to 40 mm
- zone of inhibition at 1000 µg/mL [2]: 21 to 40 mm
- zone of inhibition at 1000 µg/mL [3]: 21 to 40 mm
- diameter of the growth inhibition circle, Esc.(IFO-3301) [4]: -
- damage value [5]: 50.0
- Sum (of average rating values A₁ to A₅) [5]: 7.5

SMILES: CC(C)CNC(=O)C#CI [Example 6, N-Isobutyl-3-iodopropiolamide]
- zone of inhibition at 1000 µg/mL [1]: 21 to 40 mm
- zone of inhibition at 1000 µg/mL [2]: 21 to 40 mm
- zone of inhibition at 1000 µg/mL [3]: 21 to 40 mm
- diameter of the growth inhibition circle, Esc.(IFO-3301) [4]: -
- damage value [5]: 20.2
- Sum (of average rating values A₁ to A₅) [5]: 3.0
- wood fungicide activity (statement in words) [5]: excellent wood fungicide activity

SMILES: CCCCCCCCCNC(=O)C#CI [Example 11, N-(n-Nonyl)-3-iodopropiolamide]
- zone of inhibition at 1000 µg/mL [1]: 9 to 20 mm
- zone of inhibition at 1000 µg/mL [2]: 9 to 20 mm
- zone of inhibition at 1000 µg/mL [3]: 9 to 20 mm
- diameter of the growth inhibition circle, Esc.(IFO-3301) [4]: -
- damage value [5]: 82.2
- Sum (of average rating values A₁ to A₅) [5]: 12.3

SMILES: CCCCCNC(=O)C#CI [Example 7, N-(n-Pentyl)-3-iodopropiolamide]
- zone of inhibition at 1000 µg/mL [1]: 21 to 40 mm
- zone of inhibition at 1000 µg/mL [2]: 21 to 40 mm
- zone of inhibition at 1000 µg/mL [3]: 21 to 40 mm
- zone of inhibition at 1000 µg/mL [4]: 9 to 20 mm
- damage value [5]: 34.4
- Sum (of average rating values A₁ to A₅) [5]: 5.2

SMILES: CCCCCCNC(=O)C#CI [Example 8, N-(n-Hexyl)-3-iodopropiolamide]
- zone of inhibition at 1000 µg/mL [1]: 21 to 40 mm
- zone of inhibition at 1000 µg/mL [2]: 21 to 40 mm
- zone of inhibition at 1000 µg/mL [3]: 21 to 40 mm
- zone of inhibition at 1000 µg/mL [4]: 9 to 20 mm
- damage value [5]: 23.3
- Sum (of average rating values A₁ to A₅) [5]: 3.5
- wood fungicide activity (statement in words) [5]: excellent wood fungicide activity

SMILES: CCCCNC(=O)C#CI [Example 4, N-(n-Butyl)-3-iodopropiolamide]
- zone of inhibition at 1000 µg/mL [1]: 21 to 40 mm
- zone of inhibition at 1000 µg/mL [2]: 21 to 40 mm
- zone of inhibition at 1000 µg/mL [3]: 21 to 40 mm
- zone of inhibition at 1000 µg/mL [4]: 9 to 20 mm
- damage value [5]: 6.7
- Sum (of average rating values A₁ to A₅) [5]: 1.0
- wood fungicide activity (statement in words) [5]: excellent wood fungicide activity

SMILES: CCCCCCCCCCNC(=O)C#CI [Example 2, N-(n-Decyl)-3-iodopropiolamide]
- zone of inhibition at 1000 µg/mL [1]: 9 to 20 mm
- zone of inhibition at 1000 µg/mL [2]: 9 to 20 mm
- zone of inhibition at 1000 µg/mL [3]: 9 to 20 mm
- diameter of the growth inhibition circle, Esc.(IFO-3301) [4]: -
- damage value [5]: 62.2
- Sum (of average rating values A₁ to A₅) [5]: 9.3

SMILES: CCCCCCCCNC(=O)C#CI [Example 10, N-(n-Octyl)-3-iodopropiolamide]
- zone of inhibition at 1000 µg/mL [1]: 21 to 40 mm
- zone of inhibition at 1000 µg/mL [2]: 21 to 40 mm
- zone of inhibition at 1000 µg/mL [3]: 9 to 20 mm
- diameter of the growth inhibition circle, Esc.(IFO-3301) [4]: -
- damage value [5]: 54.4
- Sum (of average rating values A₁ to A₅) [5]: 8.2

SMILES: CCC(C)NC(=O)C#CI (centres unmarked) [Example 5, N-(sec-Butyl)-3-iodopropiolamide]
- zone of inhibition at 1000 µg/mL [1]: 21 to 40 mm
- zone of inhibition at 1000 µg/mL [2]: 21 to 40 mm
- zone of inhibition at 1000 µg/mL [3]: 21 to 40 mm
- zone of inhibition at 1000 µg/mL [4]: 9 to 20 mm
- damage value [5]: 28.9
- Sum (of average rating values A₁ to A₅) [5]: 4.3
- wood fungicide activity (statement in words) [5]: excellent wood fungicide activity

SMILES: CC(C)(C)NC(=O)C#CI [Example 1, N-(tert-Butyl)-3-iodopropiolamide]
- zone of inhibition at 1000 µg/mL [1]: 21 to 40 mm
- zone of inhibition at 1000 µg/mL [2]: 21 to 40 mm
- zone of inhibition at 1000 µg/mL [3]: 21 to 40 mm
- zone of inhibition at 1000 µg/mL [4]: 9 to 20 mm
- damage value [5]: 13.3
- Sum (of average rating values A₁ to A₅) [5]: 2.0
- wood fungicide activity (statement in words) [5]: excellent wood fungicide activity
